Source: PMC8233378, “Acyclic nucleoside phosphonates with adenine nucleobase inhibit Trypanosoma brucei adenine phosphoribosyltransferase in vitro” (Scientific Reports, 2021)

Assays:
[1] = system: Leishmania donovani APRT1; set-up: method as in PMID 11900545; conditions: substrate of Leishmania donovani APRT1; cited from earlier work
[2] = target: recombinant T. brucei APRT1 (Trypanosoma brucei brucei, UniProt Q57V32); test: APRT1 steady-state enzyme kinetics for substrates; conditions: substrate of T. brucei APRT1
Procedure: To test if the newly synthesized ANPs with an adenine as a nucleobase can inhibit the activity of the APRT1 and APRT2, both enzymes were overexpressed in E. coli. […] First, we monitored the APRT1 enzyme activity by a continuous spectrophotometric assay measuring the conversion of adenine to AMP at 256 nm.
The methodology was adapted from Ref.[6]. Briefly, the enzyme kinetics of APRT1 were measured by a continuous spectrophotometric assay measuring the conversion of adenine to AMP, at 256 nm. The concentration of enzyme in the assay was 140 nM, the concentration of PRib-PP was kept at 1 mM and the adenine concentration varied from 3.75 to 60 μM. The reaction was carried out using a 1.0 cm path length with a UV Visible spectrometer 1601 (Shimadzu) in the reaction buffer (0.1 M Tris, pH 8.4; 0.11 M MgCl2; at 25 °C). The initial velocity (V0 [µM/min]) was calculated using Beer–Lambert law for different concentration of the purine substrate molecules: A = Δε × L × c where A is the measured absorbance, Δε is constant 2100 M^−1 cm^−1 for adenine, c is a concentration of the product formed in one minute (V0) and L is the length of a cuvette. The Km, Vmax and kcat values were calculated using GraphPad Prism 9 according to Michaelis–Menten kinetics. […] The Ki values were calculated using non-linear regression in GraphPad Prism 9.

HeLa S3 cells = test: Cytotoxicity of the prodrug in human cells (CellTiter-Glo 2.0), HeLa S3; format: cell-based; conditions: HeLa S3, 10 µM
Procedure: (§1) Compound cytotoxicity was evaluated in Hela S3 cancer cells and non-tumor human dermal fibroblasts (NHDF). All cell lines were obtained from ATCC (Manassas, VA, USA). The cytotoxicity was assayed using CellTiter-Glo® 2.0 detection reagent (Promega, Madison, USA) according to the manufacturer’s protocol.

T. brucei BSF cells = test: Cell cycle analysis of treated trypanosomes (microscopy, flow cytometry with propidium iodide); format: cell-based, Trypanosoma brucei
Source text: The inhibition of the growth of T. brucei BSF in HMI-11 medium in single micromolar EC50 values (Table 1) was somewhat surprising considering the dispensability of APRT enzymes for these cells. […] To get deeper insights into the in vivo action of ANPs on APRT enzyme we tested their cytotoxicity on wild type cells grown in HMI-11^adenine medium. In this medium, the cells rely on the activity of the APRT enzyme to produce AMP and other […]. […] To corroborate this observation, we also tested cells with induced ectopic expression of V5-tagged APRT1 in both types of media and in the presence of the selected ANPs. […] The changes in the distribution of different cell cycle stages within a population were further assessed by flow cytometry assaying the DNA content by staining the cells with propidium iodide (Fig. 8A).
BFS trypanosomes in log phase were resuspended in HMI-11 medium to a density of 2 × 10^5 cells ml^−1. Test compounds at concentrations ranging from 1 to 16 µM were added to the cell suspension followed by 12 h incubation at 37 °C. The cell cycle analysis was performed as described previously. Briefly, approximately 2 × 10^6 cells were washed with PBS and fixed in 1 ml of 70% methanol in 1 × PBS and stored at 4 °C overnight. Following a PBS wash, samples were incubated with 10 µg/ml propidium iodide and 9.6 µg/ml of RNaseA at 37 °C for 45 min. Samples were analyzed on a FACS Canto II (BD) collecting 10,000 gated events.

[3] = system: Normal human dermal fibroblasts (NHDF); test: Cytotoxicity of the prodrug in human cells (CellTiter-Glo 2.0), NHDF; format: cell-based; conditions: 10 µM
Procedure: as §1

[4] = substrate: Nc1ncnc2nc[nH]c12; test: purified protein, by the assay type; conditions: other: substrate of T. brucei APRT1; pH 8.4; 25.0 °C
Source text: The APRT1 was purified as an active recombinant enzyme from the soluble fraction. […] First, we monitored the APRT1 enzyme activity by a continuous spectrophotometric assay measuring the conversion of adenine to AMP at 256 nm.

O=P(O)(O)OC[C@H]1O[C@H](OP(=O)(O)OP(=O)(O)O)[C@H](O)[C@@H]1O [phosphoribosyl pyrophosphate (PRib-P), 5-phospho-α-D-ribosyl-1-pyrophosphate]
Km [1]: 25.1 ± 5.9 µM
Kcat [2]: 1.8 s⁻¹
Km [2]: 162 ± 21.6 µM

CCOC(=O)[C@H](Cc1ccccc1)NP(=O)(CCN(CCN(CCP(=O)(N[C@@H](Cc1ccccc1)C(=O)OCC)N[C@@H](Cc1ccccc1)C(=O)OCC)CCP(=O)(N[C@@H](Cc1ccccc1)C(=O)OCC)N[C@@H](Cc1ccccc1)C(=O)OCC)CCn1cnc2c(N)ncnc21)N[C@@H](Cc1ccccc1)C(=O)OCC [compound 28, Hexa-(ethyl L-phenylalanine) prodrug of (2-((2-((2-(adenine-9-yl)ethyl)(2-phosphonoethyl)amino)ethyl)(2-phosphonoethyl)amino)ethyl)phosphonic acid]
Cytotoxicity of prodrug: HeLaS3 viability (HeLa S3 cells): 94%
direct microscopic observation of exposed T. brucei cells (T. brucei BSF cells): problems in the cell cycle
effect on viability of NHDF (in words) [3]: toxic
Cytotoxicity of prodrug: NHDF viability ([3]; NHDF): 4%

Nc1ncnc2[nH]cnc12 [adenine]
Kcat [1]: 17.9 s⁻¹
Km [1]: 2.3 ± 1.1 µM

B1: recombinant T. brucei APRT1 (Trypanosoma brucei brucei TREU927) (protein)
chain: SLVEVLPNYFTLSKDSPLRKKFEKVYKWYSPAFSPHDVPRFAEVGNITENPEVMRGIRDFFVDRYKNLQQPITHILGFDSRGFLLGPMIAVELNVPFVLIRKANKIAGVIIKSEPYTKEYAAESEECMTVRFGSFDKNSRVVLIDDVIATGGTMLAGVQLVDACGATLVEVAGILGLTFLKGTQPAHTFAGGRYSNVPFVTLVDETVLSDENCGDPLHHKGSRIISCAEAKKLI
Km [4]: 8.7 ± 1.9 µM
kcat [4]: 0.82 s⁻¹
